According to patent US10506759B2, “Rice seed treatment agent” (KUMIAI CHEMICAL INDUSTRY CO., LTD., priority 2015, dated 2019):
Where two headings read alike, the source gives them in different places.

Experiments:
Lindernia species = experiment: Test Example 2: growth-inhibitory effect on weeds (pot test); format: in vivo; conditions: Table 6; spontaneously grown weeds; scale 0 to 100; Day 22 after sowing
Procedure: (§1) Treatment of dried paddy seeds was carried out at a coating ratio of 0.5 (seeds:iron powder=1:0.5). More specifically, paddy seeds, an iron powder, and calcined gypsum were mixed and stirred together while spraying water thereon, using a coating machine according to a conventional method, to coat the seeds with the iron powder and the calcined gypsum. The outer layer of the coated seeds was further similarly coated with finishing calcined gypsum mixed with each of the paddy seed treatment agents containing the herbicidal active components shown in Tables 2 to 6.
(§2) In a 200-cm^2 plastic pot, paddy field soil was placed, and tillage was carried out, followed by sowing seeds of Scirpus juncoides on the soil surface. Then, the seeds were covered with 0.5-cm thick soil. Subsequently, flooding was allowed to a depth of 4 cm, followed by sowing seeds of Monochoria vaginalis on the soil surface. When the Monochoria vaginalis reached the five-leaf stage, three paddy seeds treated with each paddy seed treatment agent obtained in Preparation Example were sown. On Day 22 after the sowing of paddy seeds, the germination rate of the paddy seeds and the growth-inhibitory effect on the weeds were judged. Since Lindernia species were spontaneously grown in the test field soil, the growth-inhibitory effect on the Lindernia species were also judged. The germination rate of the paddy seeds is expressed as %, and the growth-inhibitory effect on the weeds is expressed as a value of 0 to 100 representing the degree of inhibition, wherein 0 represents no inhibition, and 100 represents complete death.

Monochoria vaginalis = experiment: as above; format: in vivo; conditions: Table 6; paddy seeds sown at five-leaf stage of weed; scale 0 to 100; Day 22 after sowing
Procedure: as §1, §2

Scirpus juncoides = experiment: as above; format: in vivo; conditions: Table 6; scale 0 to 100 (complete death); Day 22 after sowing of paddy seeds
Procedure: as §1, §2

paddy rice [1] = conditions: in vivo, 22 days
Procedure: as §1
as §2, with “On Day 22 after the sowing of paddy seeds, the germination rate of the paddy seeds and the growth-inhibitory effect on the weeds were judged. Since Lindernia species were spontaneously grown in the test field soil, the growth-inhibitory effect on the Lindernia species were also judged.” left out

paddy rice [2] = experiment: Test Example 1: germination rate of treated paddy seeds (pot test); format: in vivo
Procedure: as §1
In a 200-cm^2 plastic pot, paddy field soil was placed, and tillage was carried out, followed by sowing seeds of Echinochloa oryzicola and Scirpus juncoides on the soil surface. Then, tubers of Eleocharis kuroguwai in the germination state were buried in such a manner that tips of the sprouts in tubers are exposed to the outside of the soil surface. Four paddy seeds treated with each paddy seed treatment agent obtained in Preparation Example were sown, and water was gently introduced to allow flooding to a depth of 4 cm. On Day 7 after the sowing, the water was removed by suction. When the rice seedlings have grown to the one-leaf stage, flooding was allowed again to a depth of 4 cm. On Day 15 after the sowing, the germination rate of the paddy seeds and the growth-inhibitory effect on the weeds were judged. The germination rate of the paddy seeds is expressed as %, and the growth-inhibitory effect on the weeds is expressed as a value of 0 to 100 representing the degree of inhibition, wherein 0 represents no inhibition, and 100 represents complete death.

| SMILES | Growth-inhibitory rate Lindernia species (Lindernia species) | Growth-inhibitory rate Monochoria vaginalis (Monochoria vaginalis) | Growth-inhibitory rate Scirpus juncoides (Scirpus juncoides) | Germination rate of paddy rice (%) (paddy rice [1]) | Germination rate of paddy rice (%) (paddy rice [2]; Table 2, iron-coated seeds treated with agent (a.i. g per 1 kg seeds as in row), Day 15 after sowing) | Germination rate of paddy rice (%) (paddy rice [2]; in vivo) |
| --- | --- | --- | --- | --- | --- | --- |
| COc1ccc(-n2c(=O)c(C(=O)C3C(=O)CCCC3=O)nc3c(Cl)cccc32)cc1 [Example 1, Fenquinotrione] | 95 | 95 | 98 | 100 | 100 |  |
| CS(=O)(=O)c1ccc(C(=O)C2=C(Sc3ccccc3)C3CCC(C3)C2=O)c(Cl)c1 (stereo not shown) [compound 2, Benzobicyclon] |  |  |  |  |  | 50 |
| CS(=O)(=O)c1ccc(C(=O)C2C(=O)CCCC2=O)c(Cl)c1COCC1CCCO1 (stereo not shown) [compound 1, Tefuryltrione] |  |  |  |  |  | 50 |
